Measured values: the supplement of paper PMC10307832

Assays:
Assay in all cases: relative viability (nuclei count vs DMSO), 5 days (fraction); higher = more cells survive
[1] = compound: COc1cccc2cc(-c3nc([C@H]4CC[C@H](C(=O)O)CC4)n4ncnc(N)c34)[nH]c12 [OSI-027] + Cc1nc(NC(=O)N2CCC[C@H]2C(N)=O)sc1-c1ccnc(C(C)(C)C(F)(F)F)c1 [Alpelisib] (partner 2 µM)
Outline: (§1)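 Relative viability divides the nuclei count in treated wells by that in vehicle wells. Lung cancer cell lines were seeded in 1536-well plates, dosed by pin tool the next day, and fixed and stained after 5 days in one step with final 0.05% Triton X-100, 1% formaldehyde and 1 ug/ml Hoechst. Dosing was a single drug or a fixed anchor-drug dose plus five library-drug doses (not always all listed) in √10 steps, and values are medians of duplicate plates imaged at 4×.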

[2] = compound: COc1cccc2cc(-c3nc([C@H]4CC[C@H](C(=O)O)CC4)n4ncnc(N)c34)[nH]c12 [OSI-027] + CC(=O)Nc1cccc(-n2c(=O)n(C3CC3)c(=O)c3c(Nc4ccc(I)cc4F)n(C)c(=O)c(C)c32)c1 [Trametinib] (partner 0.02 µM)
Outline: as §1

[3] = compound: Cc1nc(NC(=O)N2CCC[C@H]2C(N)=O)sc1-c1ccnc(C(C)(C)C(F)(F)F)c1 [Alpelisib] + CC(=O)Nc1cccc(-n2c(=O)n(C3CC3)c(=O)c3c(Nc4ccc(I)cc4F)n(C)c(=O)c(C)c32)c1 [Trametinib] (partner 0.02 µM)
Outline: as §1

[4] = compound: Cc1nc(NC(=O)N2CCC[C@H]2C(N)=O)sc1-c1ccnc(C(C)(C)C(F)(F)F)c1 [Alpelisib] + CC(=O)c1c(C)c2cnc(Nc3ccc(N4CCNCC4)cn3)nc2n(C2CCCC2)c1=O [Palbociclib] (partner 0.5 µM)
Outline: as §1

Cell Line	relative viability ([1]; first compound 0.01 µM)	relative viability ([1]; first compound 0.03162 µM)	relative viability ([1]; first compound 0.1 µM)	relative viability ([1]; first compound 0.3162 µM)	relative viability ([1]; first compound 1 µM)	relative viability ([2]; first compound 0.01 µM)	relative viability ([2]; first compound 0.03162 µM)	relative viability ([2]; first compound 0.1 µM)	relative viability ([2]; first compound 0.3162 µM)	relative viability ([2]; first compound 1 µM)	relative viability ([3]; first compound 0.04 µM)	relative viability ([3]; first compound 0.1265 µM)	relative viability ([3]; first compound 0.4 µM)	relative viability ([3]; first compound 1.265 µM)	relative viability ([3]; first compound 4 µM)	relative viability ([4]; first compound 0.04 µM)	relative viability ([4]; first compound 0.1265 µM)	relative viability ([4]; first compound 0.4 µM)	relative viability ([4]; first compound 1.265 µM)	relative viability ([4]; first compound 4 µM)
201T	0.998	1	0.963	0.919	0.545	0.742	0.716	0.717	0.717	0.674	0.7	0.723	0.716	0.645	0.586	0.374	0.335	0.357	0.315	0.29
A549	0.718	0.612	0.727	0.361	0.131	–	–	–	–	–	–	–	–	–	–	–	–	–	–	–
A-427	1.04	1.08	0.961	0.82	0.429	0.721	0.747	0.574	0.437	0.329	0.717	0.624	0.681	0.484	0.501	0.5	0.507	0.521	0.493	0.437
ABC-1	0.98	0.921	0.903	0.628	0.537	–	–	–	–	–	–	–	–	–	–	0.653	0.611	0.732	0.385	0.454
BEN	1.02	0.695	0.67	0.447	0.319	0.9	0.787	0.709	0.527	0.505	0.909	1.17	1.17	0.863	1.03	0.485	0.504	0.516	0.439	0.447
CAL-12T	1.28	0.907	1.09	0.954	0.391	0.315	0.334	0.336	0.235	0.242	0.371	0.259	0.378	0.266	0.193	0.413	0.38	0.647	0.415	0.355
COR-L23	0.876	0.784	0.696	0.486	0.273	0.571	0.639	0.525	0.485	0.254	0.534	0.484	0.579	0.378	0.353	0.271	0.241	0.253	0.215	0.212
COR-L 105	1.05	0.85	0.963	0.658	0.524	0.406	0.396	0.394	0.376	0.459	0.422	0.458	0.493	0.37	0.447	0.394	0.439	0.414	0.367	0.364
Calu-6	0.917	0.974	0.75	0.697	0.42	–	–	–	–	–	–	–	–	–	–	–	–	–	–	–
ChaGo-K-1	–	–	–	–	–	0.919	0.903	0.833	0.882	0.661	0.725	0.963	0.856	0.756	0.586	0.958	0.965	1	0.747	0.584
EBC-1	0.79	0.909	0.823	0.478	0.343	–	–	–	–	–	–	–	–	–	–	–	–	–	–	–
EKVX	0.731	0.849	0.73	0.625	0.351	0.413	0.359	0.3	0.293	0.313	0.306	0.334	0.27	0.341	0.249	0.349	0.325	0.386	0.313	0.242
EMC-BAC-2	0.723	0.727	0.647	0.558	0.309	0.857	0.927	0.816	0.797	0.503	0.818	–	0.892	0.529	0.599	0.5	0.481	0.505	0.348	0.324
EPLC-272H	0.889	0.866	0.828	0.619	0.599	0.293	0.278	0.254	0.236	0.239	0.268	0.255	0.315	0.238	0.231	0.289	0.333	0.324	0.291	0.267
H3255	0.589	0.731	0.537	0.503	0.376	0.527	0.594	0.514	0.476	0.414	0.649	0.541	0.642	0.422	0.391	0.333	0.321	0.333	0.296	0.264
HARA	0.81	0.655	0.785	0.495	0.291	0.719	0.616	0.556	0.398	0.386	0.633	0.732	0.529	0.257	0.265	0.295	0.25	0.257	0.172	0.156
HCC-15	0.928	0.826	0.806	0.674	0.288	0.317	0.365	0.352	0.283	0.238	0.354	0.37	0.366	0.248	0.211	0.749	0.702	0.773	0.617	0.551
HCC-44	0.795	0.775	0.738	0.574	0.215	1.04	1.07	1.05	0.942	0.795	1.05	1.12	1.03	0.849	0.81	0.98	0.921	0.988	0.881	0.913
HCC-78	0.337	0.3	0.248	0.14	0.163	0.689	0.646	0.74	0.637	0.35	0.578	0.779	0.816	0.458	0.53	0.521	0.545	0.479	0.459	0.43
